The values below come from patent publication US20210121380A1, “Amino Acid Containing Oral Care Composition for Treating Caries By Reducing Lactic Acid Release in Oral Biofilms” (3M INNOVATIVE PROPERTIES COMPANY, priority 2018, published 2021).

For assay [1], the system named is human saliva derived microcosm biofilm. Briefly: Mass of biofilm (wet biomass) grown in MCM human derived saliva biofilm system. It is filed as cell-based. The following applies: read-out: Biomass [% from control]; for activity at 2.7 %: Example 1, amino acid 2.7 wt. %. Here is the method:
(§1) A composition was prepared by dissolving the amino acid to be tested in de-ionized water in the given amount.
(§2) Biofilms were grown in a MCM (mucine containing medium plus 1% sucrose) human derived saliva biofilm system.
(§3) A general procedure is summarized below: • 1. Four-hour incubation of bovine sample disks with saliva-mcm (mucine containing medium plus 1% sucrose) at 37° C. • 2. Fresh medium (MCM with different amino acids) for 2-hour incubation at 37° C. • 3. Fresh medium (MCM with different amino acids) for storage over night at 37° C. • 4. Second Day: Fresh medium (MCM with different amino acids) after 22 and 24 hours. • 5. Samples were taken after 26 hours biofilm growth for measurements of lactic acid release and biomass evaluation.
The mass of biofilm was determined as follows: Filter papers are put into 1.5 ml-reaction tubes and were labelled and weighted. The biofilm, that was grown on the enamel disks is carefully wiped off with filter paper. The filter paper containing the wet biofilms were placed back into the respective reaction tube and re-weighted. The wet biomass is calculated from the difference in weight.
(§4) In this experiment, the MCM human derived saliva biofilm system was used. The biofilms were grown for 26 hours in continuous presence of sucrose and different amino acids.

For assay [2] the test system is unchanged. Kind of assay: Lactic acid release of biofilm grown in MCM human derived saliva biofilm system (LDH-NAD-PMS-MTT enzyme assay). It is filed as cell-based, lactic acid producing bacteria (human derived saliva). The following applies: for effectiveness for reducing the lactic-acid release of bacteria in a biofilm (in words): reduction by more than 40% vs control considered effective; for activity at 2.7 %: amino acid 2.7 wt. %. As for the experimental part: as §1, §2, §3
To determine the activity of the grown biofilm, the production of lactic acid in the supernatant (0.75 ml PBS-solution with 5% sucrose per each sample disc) is measured by using the Lactic acid dehydrogenase (LDH)—Nicotinamid-adenin-dinukleotid (NAD)—Phenazine Methosulphate (PMS)—Thiazolyl blue tetrazolium bromide (MTT)—enzyme assay. To guarantee that only freshly produced lactic acid is determined, the samples are washed (in three steps, each lasting 30 sec) in 1.5 ml PBS-solution. The production of lactic acid is evaluated by measuring the lactic acid amount at given points for 30 min. The determination points are: 0 min 15 min and 30 min. For each reading point a sample of 50 μl is taken out of each well. The lactic acid amount at each reading point is determined by using the enzyme assay described above. Lactic acid amount is calculated according to the lactic acid calibration curve.
as §4

Where [3] appears, read: Homo sapiens, Example 1, amino acid 8.0 wt. %, 26 h biofilm growth, continuous presence of sucrose and amino acid, read-out: Lactic Acid Release after 30 min [% from control].
Where [4] appears, read: Example 1, amino acid 4.0 wt. %, 26 h biofilm growth.
Where [5] appears, read: Homo sapiens, Example 1, amino acid 4.0 wt. %, 26 h biofilm growth, continuous presence of sucrose and amino acid, read-out: Lactic Acid Release after 30 min [% from control].
Setting [6] is: Homo sapiens, Example 1, 26 h biofilm growth, continuous presence of sucrose and amino acid, read-out: Lactic Acid Release after 30 min [% from control].
[7] abbreviates: 26 h, Example 1, amino acid 8.0 wt. %, 26 h biofilm growth.

For the molecule `N[C@@H](Cc1c[nH]cn1)C(=O)O` [Histidine, reference compound], the activity at 3.8 % in assay [1] (Example 1, amino acid 3.8 wt. %, 26 h biofilm growth) was 106%; in assay [2] (Homo sapiens, Example 1, amino acid 3.8 wt. %, 26 h biofilm growth, continuous presence of sucrose and amino acid, read-out: Lactic Acid Release after 30 min [% from control]), 150%. In addition, in assay [2], the “effectiveness for reducing the lactic-acid release of bacteria in a biofilm (in words)” value is recorded as “not effective”.
Regarding `C[C@@H](O)[C@H](N)C(=O)O` [Threonine], the activity at 8 % amounted to 190% in assay [1] (Example 1, amino acid 8.0 wt. %, 26 h biofilm growth) and 54.6% in assay [2] (setting [3]). For the same molecule, in assay [2], the “effectiveness for reducing the lactic-acid release of bacteria in a biofilm (in words)” value is on record as “useful”.
On to `CC[C@H](C)[C@H](N)C(=O)O` [Isoleucine], for which the values for the activity at 4 % in assay [1] (setting [4]) and in assay [2] (setting [5]) were 104% and 21.9%, respectively. The “effectiveness for reducing the lactic-acid release of bacteria in a biofilm (in words)” value in assay [2] is given as “useful”.
Turning to `N[C@@H](Cc1ccc(O)cc1)C(=O)O` [Tyrosine, reference compound], the activity at 0.0095 % in assay [1] (Example 1, amino acid 0.0095 wt. %, 26 h biofilm growth) was 95.3%; in assay [2] (Homo sapiens, Example 1, amino acid 0.0095 wt. %, 26 h biofilm growth, continuous presence of sucrose and amino acid, read-out: Lactic Acid Release after 30 min [% from control]), 112%. The “effectiveness for reducing the lactic-acid release of bacteria in a biofilm (in words)” value in assay [2] was “not effective”.
As to `N[C@@H](Cc1c[nH]c2ccccc12)C(=O)O` [Tryptophan], the activity at 0.25 % in assay [1] (26 h) was determined as 181%. Besides, the “effectiveness for reducing the lactic-acid release of bacteria in a biofilm (in words)” value in assay [2] is “useful”.
Regarding `N[C@@H](CO)C(=O)O` [Serine], the activity at 2.7 % was found to be 84.6% in assay [1] (26 h biofilm growth) and 11.8% in assay [2] (setting [6]). The “effectiveness for reducing the lactic-acid release of bacteria in a biofilm (in words)” value in assay [2] was “useful”.
With `N[C@@H](CCC(=O)O)C(=O)O` [Glutamic acid, reference compound], the activity at 0.215 % was 80.2% in assay [1] (Example 1, amino acid 0.215 wt. %, 26 h biofilm growth); 90.4% in assay [2] (Homo sapiens, Example 1, amino acid 0.215 wt. %, 26 h biofilm growth, continuous presence of sucrose and amino acid, read-out: Lactic Acid Release after 30 min [% from control]).
For the molecule `O=C(O)[C@@H]1CCCN1` [Proline, reference compound], the activity at 8 % is 110% in assay [1] (setting [7]) and 74.7% in assay [2] (setting [3]). Moreover, the “effectiveness for reducing the lactic-acid release of bacteria in a biofilm (in words)” value in assay [2] was “not effective”.
As for `NC(=O)C[C@H](N)C(=O)O` [Asparagine, reference compound], the activity at 0.5 % stood at 102% in assay [1] (Example 1, amino acid 0.5 wt. %, 26 h biofilm growth); 94.7% in assay [2] (Homo sapiens, Example 1, amino acid 0.5 wt. %, 26 h biofilm growth, continuous presence of sucrose and amino acid, read-out: Lactic Acid Release after 30 min [% from control]).
Take `CC(C)[C@H](N)C(=O)O` [Valine]: the activity at 5 % in assay [1] (Example 1, amino acid 5.0 wt. %, 26 h biofilm growth) was determined as 209%; in assay [2] (Homo sapiens, Example 1, amino acid 5.0 wt. %, 26 h biofilm growth, continuous presence of sucrose and amino acid, read-out: Lactic Acid Release after 30 min [% from control]), 42.1%. Also, the “effectiveness for reducing the lactic-acid release of bacteria in a biofilm (in words)” value in assay [2] was “useful”.
`CC(C)C[C@H](N)C(=O)O` [Leucine]: the activity at 2.7 % in assay [1] (26 h biofilm growth) is 85.9%; in assay [2] (setting [6]) it was 36.7%. Also, the “effectiveness for reducing the lactic-acid release of bacteria in a biofilm (in words)” value in assay [2] is “useful”.
As to `NCC(=O)O` [Glycine], the activity at 8 % in assay [1] (setting [7]) worked out at 77.2%; in assay [1] (26 h, Example 2, glycine 8.0 wt. %) it was 42.2%; in assay [2] (Homo sapiens, 0.5 h, Example 2, glycine 8.0 wt. %, continuous presence with sucrose, read-out: Lactic Acid Release after 30 min [% from control]), 5.6%; in assay [2] (setting [3]), 5.7%. In addition, the activity at 0.5 % is 143% in assay [1] (26 h, Example 2, glycine 0.5 wt. %) and 97.5% in assay [2] (Homo sapiens, 0.5 h, Example 2, glycine 0.5 wt. %, continuous presence with sucrose, read-out: Lactic Acid Release after 30 min [% from control]). In addition, the activity at 1 % in assay [1] (26 h, Example 2, glycine 1.0 wt. %) amounted to 146%; in assay [2] (Homo sapiens, 0.5 h, Example 2, glycine 1.0 wt. %, continuous presence with sucrose, read-out: Lactic Acid Release after 30 min [% from control]), 51.6%. Also, the activity at 2 % in assay [1] (26 h, Example 2, glycine 2.0 wt. %) is 96.7%; in assay [2] (Homo sapiens, 0.5 h, Example 2, glycine 2.0 wt. %, continuous presence with sucrose, read-out: Lactic Acid Release after 30 min [% from control]), 32.3%. Besides, the activity at 4 % was 56.2% in assay [1] (26 h, Example 2, glycine 4.0 wt. %) and 1.6% in assay [2] (Homo sapiens, 0.5 h, Example 2, glycine 4.0 wt. %, continuous presence with sucrose, read-out: Lactic Acid Release after 30 min [% from control]). The “effectiveness for reducing the lactic-acid release of bacteria in a biofilm (in words)” value in assay [2] is listed as “useful”.
Consider `N[C@@H](Cc1ccccc1)C(=O)O` [Phenylalanine], for which the activity at 0.5 % in assay [1] (26 h, Example 3, phenylalanine 0.5 wt. %) turned out to be 181%; in assay [2] (Homo sapiens, 0.5 h, Example 3, phenylalanine 0.5 wt. %, continuous presence with sucrose, read-out: Lactic Acid Release after 30 min [% from control]), 45.9%. In addition, the activity at 1 % in assay [1] (26 h, Example 3, phenylalanine 1.0 wt. %) came to 124%; in assay [2] (Homo sapiens, 0.5 h, Example 3, phenylalanine 1.0 wt. %, continuous presence with sucrose, read-out: Lactic Acid Release after 30 min [% from control]), 32.1%. The activity at 1.5 % in assay [1] (26 h, Example 3, phenylalanine 1.5 wt. %) stood at 92.7%; in assay [2] (Homo sapiens, 0.5 h, Example 3, phenylalanine 1.5 wt. %, continuous presence with sucrose, read-out: Lactic Acid Release after 30 min [% from control]) it was 16.7%. For the same molecule, the activity at 2 % in assay [1] (26 h, Example 3, phenylalanine 2.0 wt. %) worked out at 96.5%; in assay [2] (Homo sapiens, 0.5 h, Example 3, phenylalanine 2.0 wt. %, continuous presence with sucrose, read-out: Lactic Acid Release after 30 min [% from control]) it was 12.1%. Moreover, the activity at 2.5 % in assay [1] (26 h, Example 3, phenylalanine 2.5 wt. %) was 66.9%; in assay [2] (Homo sapiens, 0.5 h, Example 3, phenylalanine 2.5 wt. %, continuous presence with sucrose, read-out: Lactic Acid Release after 30 min [% from control]), 3.5%. For the same molecule, the activity at 2.7 % in assay [1] (26 h biofilm growth) was 136%; in assay [2] (setting [6]) it was 8.6%. Further, the “effectiveness for reducing the lactic-acid release of bacteria in a biofilm (in words)” value in assay [2] is recorded as “useful”.
For the molecule `N=C(N)NCCC[C@H](N)C(=O)O` [Arginine, reference compound], in assay [1] (26 h), the activity at 8 % was 247%. In addition, the “effectiveness for reducing the lactic-acid release of bacteria in a biofilm (in words)” value in assay [2] was “not effective”.
Turning to `CSCC[C@H](N)C(=O)O` [Methionine], the activity at 4.8 % came out at 84.9% in assay [1] (26 h, Example 1, amino acid 4.8 wt. %, 26 h biofilm growth); 26.9% in assay [2] (Homo sapiens, Example 1, amino acid 4.8 wt. %, 26 h biofilm growth, continuous presence of sucrose and amino acid, read-out: Lactic Acid Release after 30 min [% from control]). Besides, in assay [2], the “effectiveness for reducing the lactic-acid release of bacteria in a biofilm (in words)” value is reported as “useful”.
Turning to `NCCCC[C@H](N)C(=O)O` [Lysine], the activity at 8 % in assay [1] (26 h) turned out to be 87.8%. For the same molecule, in assay [2], the “effectiveness for reducing the lactic-acid release of bacteria in a biofilm (in words)” value is “useful”.
For the molecule `NC(=O)CC[C@H](N)C(=O)O` [glutamine, reference compound], the “effectiveness for reducing the lactic-acid release of bacteria in a biofilm (in words)” value in assay [2] is reported as “not effective”.
For the molecule `C[C@H](N)C(=O)O` [Alanine, reference compound], the activity at 4 % in assay [1] (setting [4]) is 141%; in assay [2] (setting [5]), 99.7%.
As to `N[C@@H](CC(=O)O)C(=O)O` [Aspartic acid, reference compound], the activity at 0.1125 % was determined as 82.1% in assay [1] (Example 1, amino acid 0.1125 wt. %, 26 h biofilm growth); 101% in assay [2] (Homo sapiens, Example 1, amino acid 0.1125 wt. %, 26 h biofilm growth, continuous presence of sucrose and amino acid, read-out: Lactic Acid Release after 30 min [% from control]). The “effectiveness for reducing the lactic-acid release of bacteria in a biofilm (in words)” value in assay [2] is recorded as “not effective”.
Consider `N[C@@H](CS)C(=O)O` [Cysteine, reference compound], for which the activity at 0.625 % in assay [1] (Example 1, amino acid 0.625 wt. %, 26 h biofilm growth) amounted to 56.2%; in assay [2] (Homo sapiens, Example 1, amino acid 0.625 wt. %, 26 h biofilm growth, continuous presence of sucrose and amino acid, read-out: Lactic Acid Release after 30 min [% from control]), 85.8%.
